# Data reported in patent US7659053B2, “Methods of alteration of surface affinities using non-chemical force-creating fields” (President and Fellows of Harvard College, priority 2003, dated 2010).
# System: NIH 3T3 fibroblast cells
# Assay: Culture of NIH 3T3 fibroblasts on micropatterned SAMs on gold and palladium
# Type: cell-based
# Details: NIH 3T3 cells
# Procedure: To test the ability of SAMs on palladium to support the adhesion and growth of cells in micropatterns, certain features on the substrates were defined using microcontact printing, using techniques similar to those described above. A poly(dimethylsiloxane) (PDMS) stamp that carried microfeatures was inked with 2 mM octadecanethiol (C18) in ethanol, dried under a stream of nitrogen, then brought it into contact with the palladium films for 2 to 10 seconds. Next, the palladium film was immersed in ethanolic solutions containing 2 mM of thiols A, B, or C for up to 50 hours.
# NIH 3T3 fibroblast cells were then cultured on these micropatterned substrates. […] In contrast, OEG-terminated SAMs on the same substrate prevented the adhesion of cells during the same times.
row,Compound,adhesion of cells on SAM region
1,"OCCOCCOCCOCCOCCOCCOCCOCCCS [Compound 2, HS(CH2)3(OCH2CH2)7OH]",prevented the attachment of cells
2,"CCCCCCCCCCCCCCCCCCS [Compound C18, HS—(CH2)17—CH3]",supported the adhesion of cells
3,"OCCOCCOCCOCCOCCOCCOCCCCCCCCCCCS [thiol B, HS(CH2)11(OCH2CH2)6OH]",prevented the attachment of cells
4,"OCCOCCOCCOCCCCCCCCCCCS [Compound C11EG3, HS—(CH2)11—(O—CH2—CH2)3—OH]",prevented the attachment of cells

# System: BCE cells
# Assay: Cell motility screening assay: migration of patterned BCE cells out of patterns after voltage pulse
# Type: cell-based, Bovine
# Details: drug added before voltage pulse (−1.2 V, 30 s), fumagillin 100 mM, cycloheximide 1 mg/mL, nocodozole 1 mg/mL
# Procedure: Time-lapse images were acquired on a Leica inverted microscope equipped with a commercially available on-stage incubation chamber that maintained the temperature at 37° C. and the CO2 concentration at 10% at all times. To prevent the evaporation of water, the culture dish was covered with a thin layer of mineral oil (Sigma-Aldrich, St. Louis, Mo.). Phase-contrast images were acquired by a Hamamatsu video camera using METAMORPH® software (Universal Imaging Inc., Downingtown, Pa.). Fluorescent images were acquired through a charge-coupled device from Hamamatsu (ORCA-ER). Quantification of cell shapes for the analysis of the fractional coverage of the surface was performed with an image analysis routine in Metamorph. Briefly, the cells were outlined and the total areas that the cells occupied were calculated. The calculated area was then divided by the total area of the field of view in the micrograph to obtain the normalized fractional coverage by cells. The LIVE/DEAD® assay kit was obtained from Molecular Probes (Eugene, Oreg.).
# BCE cells were patterned on a gold-coated substrate coated with C18 and C11EG3 thiols in discrete patterned regions, similar to those shown in FIG. 1 by techniques similar to those described above in Example 1. Additionally, serum-containing media was used in some instances. […]
row,Compound,effect on cell migration out of the patterns
1,"CO[C@@H]1[C@H](OC(=O)/C=C/C=C/C=C/C=C/C(=O)O)CC[C@]2(CO2)[C@H]1[C@@]1(C)O[C@@H]1CC=C(C)C [Fumagillin, fumagillin]",reduce the rates of cell migration
2,C[C@@H]1C[C@@H]([C@H](O)CC2CC(=O)NC(=O)C2)C(=O)[C@@H](C)C1 [cycloheximide],reduce the rates of cell migration
